Measurements: patent US20100093767A1, “Mitotic Kinase Inhibitors” (TAKEDA SAN DIEGO, INC., priority 2004, published 2010)
pIC50: −log10 of the molar value.

Target: T1, KSP (HuEg5) (Homo sapiens, UniProt P52732)
T1 construct: I.D. No. 1 corresponds to residues 1-359 with the C-terminal 6-histidine tag; 6-histidine tag (C); made in house; host or cells: E. coli Tuner (DE3)
T1 sequence (P52732 with tags, fused parts or gaps): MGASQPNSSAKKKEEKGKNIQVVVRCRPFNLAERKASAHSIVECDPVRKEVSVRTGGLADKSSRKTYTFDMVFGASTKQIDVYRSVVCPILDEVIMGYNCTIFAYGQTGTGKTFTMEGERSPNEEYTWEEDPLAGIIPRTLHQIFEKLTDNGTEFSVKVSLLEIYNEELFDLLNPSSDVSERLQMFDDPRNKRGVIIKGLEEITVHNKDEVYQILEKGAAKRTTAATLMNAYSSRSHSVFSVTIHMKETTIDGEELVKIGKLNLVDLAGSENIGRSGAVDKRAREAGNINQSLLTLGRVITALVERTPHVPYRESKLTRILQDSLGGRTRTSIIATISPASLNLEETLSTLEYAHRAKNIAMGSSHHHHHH
Assay: in vitro enzymatic KSP (HuEg5) ATPase activity assay
Type: biochemical
Details: reference compounds; coupled PK/LDH ATPase assay, 25 μM ATP, 12 nM enzyme, 60 minutes at room temperature
From the text: The activity of compounds as KSP (HuEg5) inhibitors may be assayed in vitro, in vivo, or in a cell line. Further, compounds according to the present invention may be screened for activity against one or more kinesins. Provided below is the in vitro enzymatic KSP (HuEg5) ATPase activity assay for activity against KSP (HuEg5).
KSP (Eg5) DNA encoding residues 1-359 of the Kinesin motor domain sequence of the human enzyme may be amplified by PCR and cloned into the NcoI site of pET15b (Novagen), which incorporates a 6-histidine tag at the C-terminus. SEQ. I.D. No. 1 corresponds to residues 1-359 with the C-terminal 6-histidine tag and SEQ. I.D. No. 2 is the DNA sequence that was used to encode SEQ. […]
Recombinant protein may be isolated from cellular extracts by passage over ProBond resin (Invitrogen), and dialysis against buffer containing 25 mM Tris pH 7.6, 50 mM NaCl, 0.25 mM TCEP. The purity of KSP (Eg5) proteins may be determined on denaturing SDS-PAGE gel. […]
The inhibitory properties of compounds relative to KSP may be determined using a clear 384-well plate format under the following reaction conditions: 20 mM K-PIPES pH 6.8, 2 mM MgCl2, 1 mM EGTA, 1.5 mM KCl, 1 mM DTT, 0.01% Brij35, 25 μM ATP, 1 mM phosphoenolpyruvate (PEP), 0.4 mM NADH, 25 nM microtubules (MT), 1 μM Taxol, 30 units/ml rabbit muscle pyruvate kinase (PK), 30 units/ml rabbit muscle lactic dehydrogenase (LDH), and 2% DMSO. […]

| pIC50 | SMILES |
| --- | --- |
| 5.82 | CCCCN1C(=O)C2Cc3c([nH]c4ccccc34)C(c3cccc(O)c3)N2C1=O (centres unmarked) [HR22C16] |
| 4.35 | CCOC(=O)C1=C(C)NC(=S)NC1c1cccc(O)c1 (centres unmarked) [Monastrol] |
